From patent publication US11317626B2, “Forchlorfenuron mixtures and uses thereof” (Valent BioSciences LLC, priority 2018, dated 2022) come the findings set out here.

Common to all, as to type: in vivo
For one test, the system named is Malus (apple) rootstocks. In words: Example 4: bud break and shoot growth of Malus (apple) rootstocks. The settings on record: for Fresh Weight at Harvest: combined new shoot growth; for Fresh Weight at Harvest / Average Number of Broken Buds Per Malus Plant at Harvest / Fresh Weight per Bud at Harvest / Average Number of Broken Nodes Per Centimeter of Shoot at Harvest: harvest at 28 days; for Average Number of Broken Nodes Per Centimeter of Shoot at Harvest: rootstocks pruned to 25 centimeters. Here is the method: (§1) To determine if the mixtures provided unexpected results, the observed combined efficacy (“OCE”) was divided by the expected combined efficacy (“ECE”) wherein the expected ECE is calculated by the Abbott method: ECE=A+B−(AB/100), • wherein ECE is the expected combined efficacy and in which A and B are the speed of bud break relative to control, the number of buds broken per plant relative to control, shoot length relative to control or shoot weight relative to control given by the single active ingredients. If the ratio between the OCE of the mixture and the ECE of the mixture is greater than 1, then greater than expected interactions are present in the mixture. (Gisi, Synergistic Interaction of Fungicides in Mixtures, The American Phytopathological Society, 86:11, 1273-1279,1996). Results
To assess the ability of mixtures of the invention to promote and synchronize bud break, these mixtures were applied to field-grown Malus (apple) rootstocks and examined for bud break (initiation of growth) and subsequent shoot development. Forchlorfenuron, Dormex (50% HC), 15-0-0 (Erger®) and 17-0-0 fertilizers (CAN17), and mixtures thereof were each applied individually or sequentially (co-applied) to the shoots of potted Malus rootstocks that were pruned to a height of 25 centimeters. Plants were evaluated for bud break at 28 days after treatment.

For test [1], the system named is Prunus (stone fruit) plants. Kind of test: Example 5: bud break and shoot growth of Prunus (stone fruit) plants in greenhouse. The settings on record: for Fresh Weight at Harvest, FW: combined new shoot fresh weight, harvest at 28 days; for 50% BB: days after treatment to 50% bud break. Here is the method:
as §1
(§2) To assess the ability of mixtures of the invention to promote and synchronize bud break, these mixtures were applied to Prunus (stone fruit) plants in the greenhouse and examined for bud break (initiation of growth) and subsequent shoot development. Forchlorfenuron, Dormex (50% HC), 15-0-0 (Erger®) and 17-0-0 fertilizers (CAN17), and mixtures thereof were each applied individually or sequentially (co-applied) to the shoots of Prunus plants. Plants were evaluated for bud break at 28 days after treatment.

Test [2] concerns Flame seedless grape vines. Kind of test: Example 3: bud break on spurs of field-grown Flame seedless grape vines. The following applies: 41 days post application. Here is the method:
as §1
as §2, with “field-grown Flame seedless grape vines” for “Prunus (stone fruit) plants”, “Thermal, Calif.,” for “the greenhouse”, “separate spurs” for “shoots”, “Flame seedless grape vines.” for “Prunus plants.”, “41” for “28”, “treatment. Results of these evaluations can be seen below in Tables 11 and 12.” for “treatment.”

For the compound `O=C(Nc1ccccc1)Nc1ccnc(Cl)c1` [CPPU, N-(2-Chloro-4-pyridyl)-N′-phenylurea], in the test with Malus (apple) rootstocks (listed as CPPU 300 ppm), the “Fresh Weight at Harvest” value stood at 6.98 grams, the “Average Number of Broken Buds Per Malus Plant at Harvest” value stood at 7.00, the “Fresh Weight per Bud at Harvest” value was determined as 0.88 grams and the “Average Number of Broken Nodes Per Centimeter of Shoot at Harvest” value is 0.28. Moreover, in the test on Malus (apple) rootstocks (listed as CPPU 600 ppm), the “Fresh Weight at Harvest” value is listed as 5.65 grams, the “Average Number of Broken Buds Per Malus Plant at Harvest” value is reported as 8.25, the “Fresh Weight per Bud at Harvest” value is given as 0.71 grams and the “Average Number of Broken Nodes Per Centimeter of Shoot at Harvest” value is listed as 0.33. Besides, the “50% BB” value with Malus (apple) rootstocks (days after treatment to 50% bud break) worked out at 12 days. For the same compound, in the test on Malus (apple) rootstocks (observed efficacy, relative to control), the “50% BB OCE” value was 2. Besides, in test [1] (listed as CPPU 300 ppm), the “Fresh Weight at Harvest, FW” value worked out at 1.34 grams and the “50% BB” value is reported as 14 days. In addition, in test [1] (listed as CPPU 600 ppm), the “Fresh Weight at Harvest, FW” value is 4.91 grams and the “50% BB” value worked out at 10 days. Further, in test [2] (listed as CPPU 300 ppm), the “Broken Buds per Spur (OCE)” value amounted to 0.00 and the “Percentage of Spurs With At Least One Bud Broken (OCE)” value (shortened to “Percentage”) was 0%. In test [2] (listed as CPPU 600 ppm), the “Broken Buds per Spur (OCE)” value is reported as 0.03 and the “Percentage” value is reported as 3%. In test [2] (listed as CPPU 1000 ppm), the “Broken Buds per Spur (OCE)” value was found to be 0.00 and the “Percentage” value was 0%.
